In patent US20070128217A1 (priority 2003, published 2007):

What was measured:
[1] = system: recombinant human anti-SARS-CoV antibody 03-018; type: binding; set-up: Binding of antibody 03-018 to linear peptides of the N protein of SARS-CoV Urbani / Binding of antibody 03-018 to looped/cyclic peptides of the N protein of SARS-CoV Urbani: unit not given here
[2] = system: control sera (pooled serum of ten healthy LUMC hospital workers; commercial negative donor pooled serum from the Dutch bloodbank); type: binding, human; set-up: Binding of Control serum LUMC to linear peptides / Binding of Control serum Blood-bank to linear peptides / Binding of Control serum LUMC to looped peptides / Binding of Control Serum Blood-Bank to Looped peptides / Binding of Control serum LUMC to linear peptides of the protein M of SARS-CoV Urbani / Binding of Control serum Blood-bank to linear peptides of the protein M of SARS-CoV Urbani / Binding of Control serum LUMC to looped peptides of the protein M of SARS-CoV Urbani / Binding of Control Serum Blood-Bank to Looped peptides of the protein M of SARS-CoV Urbani: unit not given here
[3] = system: rabbit serum obtained by immunizing a rabbit with the SARS-CoV strain Frankfurt 1; type: binding; set-up: Binding of a rabbit serum to linear peptides / Binding of a rabbit serum to looped peptides / Rabbit serum linear peptides / Rabbit serum looped peptides / Binding of a rabbit serum to linear peptides of protein N of SARS-CoV Urbani (Rabbit serum linear peptides) / Binding of a rabbit serum to looped/cyclic peptides of protein N of SARS-CoV Urbani (Rabbit serum looped peptides): unit not given here
[4] = system: antibodies in sera from SARS patients (sera 1a, 1b, 2, 6, 37, 62, London, SARS-yellow, SARS-green); type: binding, human; set-up: Binding of serum 6 to linear peptides of protein X1 of SARS-CoV Urbani / Binding of serum 37 to linear peptides of protein X1 of SARS-CoV Urbani / Binding of serum 6 to looped/cyclic peptide (PEPSCAN-ELISA) / Binding of serum 37 to looped/cyclic peptide (PEPSCAN-ELISA) / Binding of serum 37 to looped/cyclic peptides of protein X1 of SARS-CoV Urbani / Binding of serum 6 to linear peptides of protein X2 / Binding of serum 37 to linear peptides of protein X2 / Binding of serum 37 to looped/cyclic peptides of protein X2 of SARS-CoV Urbani / Binding of serum 6 to linear peptides of protein M of SARS-CoV Urbani / Binding of serum 37 to linear peptides of protein M of SARS-CoV Urbani / Binding of serum 6 to looped/cyclic peptides of protein M of SARS-CoV Urbani / Binding of serum 37 to looped/cyclic peptides of protein M of SARS-CoV Urbani / Binding of serum 6 to linear peptides of protein X3 of SARS-CoV Urbani / Binding of serum 37 to linear peptides of protein X3 of SARS-CoV Urbani / Binding of serum 37 to looped/cyclic peptides of protein X3 of SARS-CoV Urbani / Binding of serum 6 to linear peptides of protein X4 of SARS-CoV Urbani / Binding of serum 37 to linear peptides of protein X4 of SARS-CoV Urbani / Binding of serum 37 to looped/cyclic peptides of protein X4 of SARS-CoV Urbani / Binding of serum 6 to linear peptides of protein X5 of SARS-CoV Urbani / Binding of serum 37 to linear peptides of protein X5 of SARS-CoV Urbani / Binding of serum 37 to looped/cyclic peptides of protein X5 of SARS-CoV Urbani / Binding of serum 6 to linear peptides of protein N of SARS-CoV Urbani / Binding of serum 37 to linear peptides of protein N of SARS-CoV Urbani / Binding of serum 6 to linear peptide (PEPSCAN-ELISA) / Binding of serum 1a to looped/cyclic peptides of protein N of SARS-CoV Urbani / Binding of serum 1b to looped/cyclic peptides of protein N of SARS-CoV Urbani / Binding of serum 2 to looped/cyclic peptides of protein N of SARS-CoV Urbani / Binding of serum 6 to looped/cyclic peptides of protein N of SARS-CoV Urbani / Binding of serum 37 to looped/cyclic peptides of protein N of SARS-CoV Urbani / Binding of serum 62 to looped/cyclic peptides of protein N of SARS-CoV Urbani / Binding of serum London to looped/cyclic peptides of protein N of SARS-CoV Urbani / Binding of serum SARS-green to looped/cyclic peptides of protein N of SARS-CoV Urbani: unit not given here

Sequence | Binding of antibody 03-018 to linear peptides of the N protein of SARS-CoV Urbani [1] | Binding of antibody 03-018 to looped/cyclic peptides of the N protein of SARS-CoV Urbani [1] | Binding of a rabbit serum to linear peptides of protein N of SARS-CoV Urbani (Rabbit serum linear peptides) [3] | Binding of a rabbit serum to looped/cyclic peptides of protein N of SARS-CoV Urbani (Rabbit serum looped peptides) [3] | Binding of serum 1a to linear peptides of protein N of SARS-CoV Urbani [4] | Binding of serum 1a to looped/cyclic peptides of protein N of SARS-CoV Urbani [4] | Binding of serum 1b to linear peptides of protein N of SARS-CoV Urbani [4] | Binding of serum 1b to looped/cyclic peptides of protein N of SARS-CoV Urbani [4] | Binding of serum 2 to linear peptides of protein N of SARS-CoV Urbani [4] | Binding of serum 2 to looped/cyclic peptides of protein N of SARS-CoV Urbani [4] | Binding of serum 6 to linear peptides of protein N of SARS-CoV Urbani [4] | Binding of serum 6 to looped/cyclic peptides of protein N of SARS-CoV Urbani [4] | Binding of serum 37 to linear peptides of protein N of SARS-CoV Urbani [4] | Binding of serum 37 to looped/cyclic peptides of protein N of SARS-CoV Urbani [4] | Binding of serum 62 to linear peptides of protein N of SARS-CoV Urbani [4] | Binding of serum 62 to looped/cyclic peptides of protein N of SARS-CoV Urbani [4] | Binding of serum London to linear peptides of protein N of SARS-CoV Urbani [4] | Binding of serum London to looped/cyclic peptides of protein N of SARS-CoV Urbani [4] | Binding of serum SARS-green to linear peptides of protein N of SARS-CoV Urbani [4] | Binding of serum SARS-green to looped/cyclic peptides of protein N of SARS-CoV Urbani [4] | other results
PINTNSGPDDQIGYY | 0.1 | 0.2 | 0.1 | 0.4 | 0.2 | 0.4 | 0.2 | 0.4 | 0.2 | 0.4 | 0.2 | 0.2 | 0.9 | 0.7 | 0.7 | 0.5 | 0.4 | 0.4 | 0.3 | 0.8 | Binding of Control Serum Blood-Bank to Looped peptides [2]: 0.5; Binding of Control serum Blood-bank to linear peptides [2]: 0.7; Binding of Control serum LUMC to linear peptides [2]: 0.7; Binding of Control serum LUMC to looped peptides [2]: 0.6; Binding of serum SARS-yellow to linear peptides of protein N of SARS-CoV Urbani [4]: 0.6; Binding of serum SARS-yellow to looped/cyclic peptides of protein N of SARS-CoV Urbani [4]: 0.5
PKGFYAEGSRGGSQA | 0.1 | 0.2 | 0.1 | 0.1 |  | 0.3 |  | 0.3 |  | 0.3 |  | 0.2 |  | 0.4 |  | 0.5 |  | 0.3 |  | 0.4 | Binding of Control Serum Blood-Bank to Looped peptides [2]: 0.5; Binding of Control serum Blood-bank to linear peptides [2]: 0.8; Binding of Control serum LUMC to linear peptides [2]: 0.7; Binding of Control serum LUMC to looped peptides [2]: 0.5; Binding of serum 1a to linear peptide (PEPSCAN-ELISA) [4]: 0.3; Binding of serum 1b to linear peptide (PEPSCAN-ELISA) [4]: 0.1; Binding of serum 2 to linear peptide (PEPSCAN-ELISA) [4]: 0.2; Binding of serum 6 to linear peptide (PEPSCAN-ELISA) [4]: 0.2; Binding of serum 37 to linear peptide (PEPSCAN-ELISA) [4]: 0.6; Binding of serum 62 to linear peptide (PEPSCAN-ELISA) [4]: 0.6; Binding of serum London to linear peptide (PEPSCAN-ELISA) [4]: 0.5; Binding of serum SARS-green to linear peptide (PEPSCAN-ELISA) [4]: 0.0; Binding of serum SARS-yellow to linear peptide (PEPSCAN-ELISA) [4]: 0.5; Binding of serum SARS-yellow to looped/cyclic peptides of protein N of SARS-CoV Urbani [4]: 0.2
PKKDKKKKTDEAQPL | 0.1 | 0.2 | 0.1 | 0.0 | 0.2 | 0.2 | 0.1 | 0.1 | 2.5 | 0.2 | 0.2 | 0.1 | 0.7 | 0.4 | 0.7 | 0.3 | 0.5 | 0.3 | 0.1 | 0.1 | Control Serum Blood-Bank Looped peptides [2]: 0.4; Control serum Blood-bank linear peptides [2]: 0.8; Control serum LUMC linear peptides [2]: 0.8; Control serum LUMC looped peptides [2]: 0.3; Binding of serum SARS-yellow to linear peptides of protein N of SARS-CoV Urbani [4]: 0.5; Binding of serum SARS-yellow to looped/cyclic peptides of protein N of SARS-CoV Urbani [4]: 0.2
PKQRRPQGLPNNTAS | 0.2 | 0.3 | 0.2 | 0.2 | 0.2 | 0.5 | 0.1 | 0.5 | 0.4 | 0.8 | 0.2 | 0.4 | 0.9 | 0.8 | 0.7 | 0.7 | 0.6 | 0.6 | 0.6 | 3.1 | Binding of Control Serum Blood-Bank to Looped peptides [2]: 0.8; Binding of Control serum Blood-bank to linear peptides [2]: 0.8; Binding of Control serum LUMC to linear peptides [2]: 0.7; Binding of Control serum LUMC to looped peptides [2]: 1.0; Binding of serum SARS-yellow to linear peptides of protein N of SARS-CoV Urbani [4]: 0.6; Binding of serum SARS-yellow to looped/cyclic peptides of protein N of SARS-CoV Urbani [4]: 0.9
PLPQRQKKQPTVTLL | 0.1 | 0.3 | 0.1 | 0.7 | 0.2 |  | 0.1 |  | 0.2 |  | 0.2 |  | 0.5 |  | 0.6 |  | 1.0 |  | 0.2 |  | Control Serum Blood-Bank Looped peptides [2]: 1.1; Control serum Blood-bank linear peptides [2]: 0.7; Control serum LUMC linear peptides [2]: 0.5; Control serum LUMC looped peptides [2]: 1.1; Binding of serum SARS-yellow to linear peptides of protein N of SARS-CoV Urbani [4]: 1.0; Recognition of the peptide by sera of SARS-CoV infected individuals, and form (linear, looped/cyclic) in which it is recognized [4]: recognized in looped/cyclic form
